The values below come from US11976062B2, “Benzisoxazole compound” (OSAKA UNIVERSITY, priority 2018, dated 2024).

Test [1] concerns the target T1, TRPC3 channel (Homo sapiens, UniProt Q13507).
T1 construct: expressed in transfected cells; host or cells: HEK293
T1 sequence (Q13507 1-921): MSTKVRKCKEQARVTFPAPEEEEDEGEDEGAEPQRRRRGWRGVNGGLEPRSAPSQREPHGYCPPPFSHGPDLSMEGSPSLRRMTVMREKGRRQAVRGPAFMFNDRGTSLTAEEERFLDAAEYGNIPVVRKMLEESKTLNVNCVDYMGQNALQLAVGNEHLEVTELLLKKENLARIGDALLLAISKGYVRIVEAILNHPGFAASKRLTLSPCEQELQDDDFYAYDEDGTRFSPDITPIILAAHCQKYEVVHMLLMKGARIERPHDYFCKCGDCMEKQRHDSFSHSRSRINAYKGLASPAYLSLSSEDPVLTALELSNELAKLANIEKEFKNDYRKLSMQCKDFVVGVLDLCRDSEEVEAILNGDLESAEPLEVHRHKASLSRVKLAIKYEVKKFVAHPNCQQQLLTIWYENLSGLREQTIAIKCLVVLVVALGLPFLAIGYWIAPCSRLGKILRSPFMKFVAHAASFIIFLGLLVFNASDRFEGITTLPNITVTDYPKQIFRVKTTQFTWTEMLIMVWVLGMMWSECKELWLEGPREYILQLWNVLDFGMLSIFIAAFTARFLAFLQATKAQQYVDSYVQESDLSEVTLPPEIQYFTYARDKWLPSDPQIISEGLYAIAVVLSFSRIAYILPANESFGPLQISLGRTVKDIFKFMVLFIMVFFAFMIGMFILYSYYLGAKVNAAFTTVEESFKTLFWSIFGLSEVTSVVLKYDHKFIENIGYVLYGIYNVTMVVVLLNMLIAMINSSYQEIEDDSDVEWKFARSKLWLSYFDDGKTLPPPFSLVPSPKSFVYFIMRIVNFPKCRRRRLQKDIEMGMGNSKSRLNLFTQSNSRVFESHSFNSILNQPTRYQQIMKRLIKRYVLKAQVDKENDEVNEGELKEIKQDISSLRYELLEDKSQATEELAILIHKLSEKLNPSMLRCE
Briefly: Calcium assay using HEK293 cells transiently expressing TRPC3 channel, carbachol activation (Fura-2). Type of test: cell-based. Here is the method:
A TRPC6 gene was introduced into HEK293 cells (cells derived from human fetal kidney) by lipofection, and the TRPC6 channel was expressed on the cell membrane. Specifically, the plasmid DNA of TRPC6 (pCI-neo; Promega Corporation) was introduced into HEK293 cells using a lipofection reagent, and then cultured at 37° C. for 24 to 48 hours to express the TRPC6 channel on the cell membrane. In the same manner, HEK293 cells into which the TRPC3 gene was introduced were cultured, and the TRPC3 channel was expressed on the cell membrane.
The cultured cells were peeled off with trypsin and seeded on a cover glass again, followed by culturing the cells at 37° C. for 3 hours again. A Fura-2 AM calcium indicator was added to the medium, and the cells were cultured at 37° C. for 30 minutes to allow the cells to incorporate the indicator. For the extracellular solution, a Ca^2+-containing solution and a Ca^2+-free solution were prepared. • Ca^2+-containing solution: 2 mM CaCl2, 132 mM NaCl, 4 mM KCl, 1 mM MgCl2, 5 mM glucose, 5 mM HEPES (pH 7.4) • Ca^2+-free solution: 132 mM NaCl, 4 mM KCl, 1 mM MgCl2, 5 mM glucose, 5 mM HEPES (pH 7.4) […]

For test [2], the system named is α-SMA expression induced by TGFβ1 in dermal fibroblasts. Briefly: Fibrosis inhibition evaluation 2: immunofluorescent staining of α-SMA in dermal fibroblasts. Type of test: cell-based, mice. Particulars: 10 μM, TGFβ1 10 ng/ml, 48 hours, FIG. 7. Here is the method: In the same manner as in Test Example 5, dermal fibroblasts were isolated from mice, and sterilized cover glass (diameter: 12 mm) was placed in a 12-well plate. On the cover glass, 2.5×10^5 cells were seeded and grown. After 24 hours, the medium was replaced with a medium free of fetal bovine serum, and the cells were cultured for another 24 hours. Separately, cardiac fibroblasts were isolated from 1 to 2-day-old rats and treated in the same manner as for the dermal fibroblasts. Thereafter, 10 ng/ml TGFβ1 was added to the dermal fibroblasts, and 2 ng/ml TGFβ2 was added to the cardiac fibroblasts, followed by culturing the cells for 48 hours. At the same time as TGFβ was added, 10 μM of a test compound (compound 011), 10 μM of Pyr 2 (conventional inhibitor), or DMSO (solvent control) was also added. Separately, cultured cells to which TGFβ-free phosphate buffered saline (PBS) was added were also prepared. […] After blocking with 1% bovine serum albumin, α-SMA was detected using anti-α-SMA antibody (Sigma) as the primary antibody and anti-mouse IgG antibody (Molecular Probes) fused with Alexa 488 as the secondary antibody, and an image was acquired using a fluorescence microscope (Keyence) with a 20× objective lens. The average fluorescence brightness (fluorescence intensity/pixel) per cell area was calculated and analyzed using Image J software.

Take `O=C(O)c1cnc(N2CCN(c3noc4cccc(C(F)(F)F)c34)CC2)c(Cl)c1` [Compound 011, 5-chloro-6-(4-(4-(trifluoromethyl)benzo[d]isoxazol-3-yl)piperazin-1-yl) nicotinic acid]: in test [1] (TRPC3, FIG. 2, from about 100 nM, control (DMSO) about 350 nM), the “Ca2+ concentration in the cells reached after addition of carbachol” value was “about 180 nM”. In addition, the IC50 in test [1] (TRPC3-expressing HEK293 cells, carbachol 100 μM, from concentration-response curves, read-out: IC50 for inhibition of the TRPC3 channel) was determined as 700 nM. For the same compound, the “expression of α-SMA induced by TGFβ (immunofluorescent staining)” value in test [2] was “almost completely suppressed the expression of α-SMA”.
